# Assay results as given in patent publication US20060183780A1, “Pyrazole compounds useful in the treatment of inflammation” (priority 2003, published 2006).
# Target: T1, 15-lipoxygenase (Homo sapiens, UniProt P16050)
# T1 sequence (P16050 1-662): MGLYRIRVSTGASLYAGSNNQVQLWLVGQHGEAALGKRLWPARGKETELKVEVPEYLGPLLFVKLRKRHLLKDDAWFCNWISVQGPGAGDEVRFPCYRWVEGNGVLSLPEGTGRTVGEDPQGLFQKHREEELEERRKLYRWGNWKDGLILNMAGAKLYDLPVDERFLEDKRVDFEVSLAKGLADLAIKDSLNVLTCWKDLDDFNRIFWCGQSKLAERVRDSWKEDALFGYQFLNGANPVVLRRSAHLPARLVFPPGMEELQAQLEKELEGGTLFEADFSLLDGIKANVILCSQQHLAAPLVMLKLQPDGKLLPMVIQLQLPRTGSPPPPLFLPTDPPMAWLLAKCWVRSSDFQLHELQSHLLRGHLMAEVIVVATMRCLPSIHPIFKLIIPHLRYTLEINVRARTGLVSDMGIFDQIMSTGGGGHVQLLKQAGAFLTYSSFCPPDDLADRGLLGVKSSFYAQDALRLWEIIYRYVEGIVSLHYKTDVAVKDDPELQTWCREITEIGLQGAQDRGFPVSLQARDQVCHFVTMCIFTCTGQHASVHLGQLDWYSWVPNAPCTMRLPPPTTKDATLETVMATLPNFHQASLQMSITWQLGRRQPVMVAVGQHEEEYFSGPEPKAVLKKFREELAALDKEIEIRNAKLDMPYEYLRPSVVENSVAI
# Experiment: 15-lipoxygenase inhibition, DPPP fluorescence assay with linoleic acid
# Format: biochemical
# Details: biological test method; test concentration not given
# Protocol: The assay employed takes advantage of the ability of lipid hydroperoxides to oxidize the non-fluorescent diphenyl-1-pyrenylphosphine (DPPP) to its corresponding fluorescent phosphine oxide. Fluorescence is measured using a dual-scanning microplate spectrofluorometer, Spectramax Gemini, from Molecular Devices. DPPP was purchased from Molecular Probes. Linoleic acid was from Biomol and PBS (phosphate buffered saline) from Gibco Life Technologies. The assay is performed in 96-well plates at room temperature (20-22° C.). The following are added (in the following order) to each well:
# a) 35 μl of Dulbecco's phosphate buffered saline (PBS);
# b) inhibitor (i.e. compound) or vehicle (0.5 μl DMSO);
# c) 10 μL of a 5× concentrated 15-lipoxygenase solution in PBS. The plates are incubated for 5 minutes at room temperature;
# d) 5 μl of 2 mM linoleic acid in PBS. The plate is then incubated for 20 minutes at room temperature;
# e) the enzymatic reaction is terminated by the addition of 50 μl methanol; and
# f) 50 μl of 200 μM DPPP in methanol is added to each well.
# After 30 minutes at room temperature, the fluorescence can be read using an excitation wavelength of 358 nm and an emission wavelength of 379 nm.
row,Compound,inhibition of 15-lipoxygenase
1,"CCCCCc1ccc(C(=O)n2ccc(C(=O)Nc3ccc(N(C)C)cc3)n2)cc1 [Example 23, 1-(4-Pentylbenzoyl)-1H-pyrazole-3-carboxylic acid (4-dimethylaminophenyl)amide]",44%
2,"O=C(Nc1cccnc1)c1ccn(C(=O)c2ccccc2)n1 [Example 1, 1-Benzoyl-1H-pyrazole-3-carboxylic acid pyridin-3-ylamide]",45%

# Further lines, results first:
row,inhibition of 15-lipoxygenase,Compound
1,39%,"CCOc1ccccc1C(=O)n1ccc(C(=O)Nc2cc(C)no2)n1 [Example 14, 1-(2-Ethoxybenzoyl)-1H-pyrazole-3-carboxylic acid (3-methylisoxazol-5-yl)amide]"
2,50%,"COC(=O)c1ccsc1NC(=O)c1ccn(C(=O)c2cc(F)ccc2C)n1 [Example 8, 2-{[1-(5-Fluoro-2-methylbenzoyl)-1H-pyrazole-3-carbonyl]amino}-thiophene-3-carboxylic acid methyl ester]"
3,45%,"CCOc1ccccc1C(=O)n1ccc(C(=O)Nc2cc(Cl)ccc2C#N)n1 [Example 26, 1-(2-Ethoxybenzoyl)-1H-pyrazole-3-carboxylic acid (5-chloro-2-cyanophenyl)amide]"
